Results reported in US20020132802A1, “Cytoprotective polycyclic compounds” (Washington Univeristy, priority 2000, published 2002).
Like-named read-outs stand apart in the source and are kept apart here.

Tested on: HT-22 cells
Assay: HT-22 Cell Neuroprotection Assay (glutamate-induced cell death, calcein AM viability)
Assay type: cell-based, murine
Details: about 16 h exposure
Method: Method: HT-22 Cell Neuroprotection Assay
HT-22 cells (immortalized hippocampal neurons of murine origin) were maintained in DMEM media (Life Technologies, Inc., Gaitherburg, Md.) supplemented with 10% charcoal-stripped FBS (HyClone Laboratories, Inc., Logan, Utah) and 20 μg/mL gentamycin, according to standard culture conditions.
Cells were plated at a density of 5,000 cells/well in clear-bottomed Nunc 96-well plates (Fisher Scientific, Orlando, Fla.) and allowed to incubate overnight. Steroids dissolved in DMSO were added at concentrations ranging from 0.01-10 μM and were co-administered with glutamate (10 mM or 20 mM). DMSO was used at concentrations of 0.1% vol/vol as a vehicle control and had no discernible effect on cell viability. After about 16 h of glutamate exposure, cells were rinsed with PBS, pH 7.4, and viability was assessed by the addition of 25 μM calcein AM (Molecular Probes, Inc., Eugene, Oreg.) in PBS for 15 min at room temperature. Fluorescence was determined (excitation 485 nm, emission 530 nm) using a fluorescence FL600 microplate reader (Biotek, Winooski, Vt.). Cells that were lysed by addition of methanol were used for blank readings. All data were normalized to % cell death, as calculated by (control value −insult value)/control value×100.

SMILES	EC50 (Mus musculus, co-administered with 10 mM glutamate, read-out: Steroid concentration needed to protect 50% of neurons killed by 10 mM Glutamate ED50)	EC50 (co-administered with 10 mM glutamate, read-out: Steroid concentration needed to protect 50% of neurons killed by 10 mM Glutamate ED50)	EC50 (co-administered with 20 mM glutamate, read-out: Steroid concentration needed to protect 50% of neurons killed by 20 mM Glutamate ED50)
C[C@]12CC[C@@H]3c4ccc(O)cc4CC[C@H]3[C@@H]1CCC2=O [Estrone, estrone, reference compound]	3.03 µM	–	–
C[C@@]12CC=C3c4ccc(O)cc4CC[C@@H]3[C@H]1CC[C@H]2O [ZYC-12]	–	0.53 µM	1.43 µM
